Results published in patent US6328998A, “Composition comprising L-carnitine or an alkanoyl L-carnitine and long-chain alkanols” (Sigma-Tau Industrie Farmaceutiche Riunite S.p.A., priority 1997, dated 2001).

What was measured:
[1] = tested on: ATP content of the papillary muscle; test: ATP concentrations in papillary muscle of rabbits with induced hypoxia; assay type: in vivo, New Zealand rabbits; details: L-carnitine 100 mg/kg, hexacosanol 10 mg/kg or both, i.v. daily for 3 days; for ATP content after hypoxia: 60 min of hypoxia, controls 0.45 ± 0.03; for ATP content before hypoxia: normal perfusion 90 min, controls 1.65 ± 0.28
Procedure: These tests were performed in New Zealand rabbits with a mean body weight of 2 kg, receiving daily intravenous injections of a solution containing 100 mg/kg of L-carnitine or 10 mg/kg of hexacosanol, or of the two substances combined at the same doses, for 3 consecutive days. A group of animals received no treatment and served as the control group.
All the animals treated were sacrificed along with the controls at the end of the third day of treatment two hours after the last injection. The hearts were removed and equal sections of papillary muscle measuring 1 mm in diameter and 4-5 mm in thickness were isolated. These tissues were perfused in a thermostatic bath with a (100%) saturated O2 solution. Experimental hypoxia conditions were induced by introducing N2 (100%) into the bath in place of O2. […] The analysis was done on tissue samples maintained under normal perfusion conditions for 90 min and after 60 min of hypoxia.

[2] = tested on: left ventricular arrhythmias due to myocardial anoxia; test: Cardiac anoxia induced by coronary ligation (left ventricular arrhythmias); assay type: in vivo, Male Wistar rats; details: for Start of arrhythmias / Total ectopic contractions during 30 min after coronary ligation: L-carnitine 100 mg/kg, hexacosanol 10 mg/kg or both into left ventricle 15 min before ligation; for Start of arrhythmias: controls 4-7; for Total ectopic contractions during 30 min after coronary ligation: controls 992 ± 118; for ability to reduce ectopic contractions (in words): administered alone
Procedure: These tests were performed to evaluate the protective action of L-carnitine and hexacosanol and their combination on left ventricular arrhythmias due to myocardial anoxia induced by coronary ligation according to the technique described by Selych et cal. (Angiology 11-398, 1960) and by Clark et al. (J Pharmacol Methods 3-357, 1980). Male Wistar rats with a mean body weight of 350-400 g were submitted to surgical occlusion of the left coronary artery. Arrhythmias set in within 4-7 min of coronary ligation. Ventricular ectopic contractions were then counted during a period of 30 min both in a group of control rats and in the groups of rats receiving slow injection of a solution containing L-carnitine (100 mg/kg), hexacosanol (10 mg/kg) or the two substances in combination at the same doses into the left ventricle 15 min before ligation.

[3] = tested on: atherosclerotic lesions (abdominal aorta); test: Experimental atherosclerosis tests (atherogenic diet); assay type: in vivo, Wistar male rats; details: abdominal aorta thickness and Sudan IV staining, 1- to 5-point score
Procedure: D2 200 m STU/g diet. The anti-atherogenic effect of both L-carnitine and hexacosanol were evaluated by using morphometric methods to measure the thickness of the abdominal aorta and the intensity of the staining induced by Sudan IV, with a 1- to 5-point scoring system, according to the degree of severity.

blood cholesterol = test: Experimental cholesterolaemia tests; assay type: in vivo; details: for total cholesterol: daily for six weeks with cholesterolaemia-lowering diet, L-carnitine 100 mg/kg, hexacosanol 10 mg/kg or both, controls 95.2 ± 5.4, hypercholesterolaemic controls 285.7 ± 11.2; for cholesterolaemia-lowering action (in words): six weeks
Description: In experimental cholesterolaemia, too, a marked synergistic effect of the L-carnitine plus hexacosanol combination was detected. In these tests, the experimental cholesterolaemia was induced according to the method described by Sirtori (Sirtori CR, Atherosclerosis 26-27, 1977). Treatment both With L-carnitine and hexacosanol, as well as with the two compounds in combination, was continued daily for six weeks, in conjunction with a cholesterolaemia-lowering diet. On completing the six weeks of treatment, blood cholesterol was assayed both in control animals put on a cholesterolaemia-lowering diet alone and in animals treated with L-carnitine, or with hexacosanol, or with the two compounds in combination. Using the assay method described by Roschlan (Roschlan P, Clin Chem Clin Biochem 12: 403, 1975).

platelet aggregation = test: Platelet aggregation inhibition tests (collagen-induced); assay type: cell-based, healthy volunteers; details: collagen 2.5 ng/mL, 10 min incubation
Procedure: The tests were performed using plasma from healthy volunteers containing at least 300,000 platelets/mm^3.
The platelet count was done using a CA 580A Platelet Counter (Delcon). Platelet aggregation was induced using collagen as the aggregating agent at doses of 2.5 and 5 ng/mL according to the technique described by Born and Cross (Born YVR, Cross M, J Physiol 26: 25, 1963).
Platelet aggregation was determined photometrically (Born VJR, Nature 194: 927, 1962) using an Elvi 840 aggregometer.
Platelet aggregation was measured in basal conditions and after 10 min of incubation with L-carnitine, hexacosanol and the L-carnitine-hexacosanol combination.

[4] = Acute oral toxicity in rats; assay type: in vivo; details: 2 g/kg L-carnitine or 500 mg/kg hexacosanol, alone or in combination
[5] = Acute oral toxicity in mice; assay type: in vivo; details: 2 g/kg L-carnitine or 500 mg/kg hexacosanol, alone or in combination
[6] = Prolonged daily administration (30 days) tolerability, body weight, blood chemistry and histology; assay type: in vivo, rats and mice; details: daily for 30 days; carnitine 250 mg/kg or hexacosanol 20 mg/kg, alone or in combination
Description: Moreover, no abnormalities were found at histological examination of the parenchyma of the main organs (heart, lungs, kidneys, adrenal glands and pancreas).

IC50 (platelet aggregation; Homo sapiens, Platelet, 10 min, read-out: ED50, inhibition of platelet aggregation induced by collagen) | Compound | ATP content after hypoxia [1] | ATP content before hypoxia [1] | Start of arrhythmias [2] | Total ectopic contractions during 30 min after coronary ligation [2] | ability to reduce ectopic contractions (in words) [2] | severity/occurrence of atherosclerotic lesions (in words) [3] | total cholesterol (blood cholesterol) | cholesterolaemia-lowering action (in words) (blood cholesterol) | effect on platelet aggregation induced by collagen (in words) (platelet aggregation) | mortality [4] | signs of toxicity [4] | mortality [5] | signs of toxicity [5] | signs of toxic reactions or of poor tolerability [6]
5.5 ng/mL | CCCCCCCCCCCCCCCCCCCCCCCCCCO [Hexacosanol] | 0.77 ± 0.05 µmol/g tissue | 1.7 ± 0.3 µmol/g tissue | 5 to 7 min | 810 ± 190 | only a very limited ability to reduce ectopic contractions | capable of reducing the severity of the atherosclerotic lesions | 268.5 ± 5.6 mg/dL | fairly modest | only partly inhibiting the platelet aggregation |  |  |  |  | 
 | C[N+](C)(C)C[C@H](O)CC(=O)[O-] [L-carnitine] | 0.67 ± 0.02 µmol/g tissue | 1.77 ± 0.25 µmol/g tissue | 4 to 7 min | 860 ± 202 | only a very limited ability to reduce ectopic contractions | capable of reducing the severity of the atherosclerotic lesions | 265.5 ± 6.1 mg/dL | fairly modest | not changed | without any mortality | without any evident signs of toxicity | without any mortality | without any evident signs of toxicity | failed to produce any signs of toxic reactions or of poor tolerability
